Columns and labels:
[1] = human, in vivo
Protocol: This prospective trial was conducted under IRB#14-001682, IRB#14-001682-AM-00001, and IRB#14-001682-AM-00002 approved by the UCLA Institutional Review Board. Following liver transplant, patients were started on a regimen of tacrolimus, mycophenolate, and methylprednisolone. According to protocol, methylprednisolone dosing was tapered using a 1000-150-[…]-120-80-40-20 mg regimen. Methylprednisolone was subsequently changed to prednisone given at 20 mg which was commonly followed with a tapering protocol. Mycophenolate dosing was administered according to protocols determined by the clinical team. Serum trough levels were taken between 4:00-6:00 AM daily, and a first dose of tacrolimus was administered between 5:00 AM-6:00 AM daily, following the serum trough recording. The clinical team obtained the daily treatment regimen details including drugs already administered, drugs to be administered, hemodialysis to be performed, co-infections, and planned prophylaxis and sent an updated clinical chart for each patient to the FSC team.
Serum levels, drug regimen dosages, and other events such as hemodialysis were obtained every morning prior to analyses. In order to project optimum dosages, a 2nd order polynomial fit for each patient was made from linear regression with mainly two variables, such as trough concentration and tacrolimus dosing amount, and it was used with at least three prior data points for the specific patient.
Statistical analyses were performed by analyzing the accuracy of correlating 2nd order polynomial mapping to the patients' data since patient-specific treatment was conducted in this study. This was accomplished using the coefficient of determination, or R-squared analysis. Values were used to correlate clinical and regression data. Where relevant, statistical significances of all the generated maps for the data analyses were determined using a t-test at α=0.05 level of confidence.

[2] = Retrospective clinical analysis using FSC of liver transplant patient data (tacrolimus serum trough levels, Patients A and B); format: in vivo, human; details: standard of care (clinically observed), target 8-10 ng/ml
Protocol: Retrospective clinical analysis was performed under IRB#14-001682 approved by the UCLA Institutional Review Board. Discharged liver transplantation patient data, such as serum level and drug regimen dosages, were obtained for analyses for the retrospective study. […] In this process, the inclusion of all the drugs as covariates allowed better representation of each patient's data and examination of the effects of drug-drug interactions within each patient's constructed map. Minimum values based on the difference between the individual patient's serum level reading and a target serum level during various small time windows were collected, and these were entered into the globally fitted map of each patient in order to find the optimum dose for that specific patient.

Compound	Serum Result (change of tacrolimus serum trough level on co-administration change) [1]	day from which trough levels deviated permanently from the target range [2] [days]	share of treatment with trough levels outside of the target range [1] [%]	trough reading higher than the anticipated trough level [1] [ng/mL]	trough reading lower than the anticipated trough level [1] [ng/mL]
CC(=O)NC[C@H]1CN(c2ccc(N3CCOCC3)c(F)c2)C(=O)O1 [Linezolid]	+0.7	–	–	–	–
C=CC[C@@H]1/C=C(\C)C[C@H](C)C[C@H](OC)[C@H]2O[C@@](O)(C(=O)C(=O)N3CCCC[C@H]3C(=O)O[C@H](/C(C)=C/[C@@H]3CC[C@@H](O)[C@H](OC)C3)[C@H](C)[C@@H](O)CC1=O)[C@H](C)C[C@@H]2OC [tacrolimus]	–	≥ 15	91	0.5	2.0
